From ChEMBL document CHEMBL1143399, “A small-molecule nitroimidazopyran drug candidate for the treatment of tuberculosis” (Nature, 2000)
Converted amounts (≈) assume the structure as drawn.

What was measured:
Assay type in all cases: functional
[1] = system: Mycobacterium tuberculosis; assay: Antimycobacterial activity against mono-rifampin-resistant Mycobacterium tuberculosis TN675
[2] = system: Mycobacterium tuberculosis; assay: Antimycobacterial activity against mono-rifampin-resistant Mycobacterium tuberculosis TN994
[3] = system: Mycobacterium tuberculosis; assay: Antimycobacterial activity against multidrug-resistant Mycobacterium tuberculosis TN576
[4] = system: Mycobacterium tuberculosis; assay: Antimycobacterial activity against multidrug-resistant Mycobacterium tuberculosis TN702
[5] = system: Mycobacterium tuberculosis; assay: Antimycobacterial activity against multidrug-resistant Mycobacterium tuberculosis TN715
[6] = system: Mycobacterium tuberculosis; assay: Antimycobacterial activity against multidrug-resistant Mycobacterium tuberculosis TN768
[7] = system: Mycobacterium tuberculosis; assay: Antimycobacterial activity against multidrug-resistant Mycobacterium tuberculosis TN772
[8] = system: Mycobacterium tuberculosis; assay: Antimycobacterial activity against multidrug-resistant Mycobacterium tuberculosis TN1195
[9] = system: Mycobacterium tuberculosis; assay: Antimycobacterial activity against multidrug-resistant Mycobacterium tuberculosis TN1314
[10] = system: Mycobacterium tuberculosis; assay: Antimycobacterial activity against multidrug-resistant Mycobacterium tuberculosis TN1618
[11] = system: Mycobacterium tuberculosis; assay: Antimycobacterial activity against multidrug-resistant Mycobacterium tuberculosis TN1811
[12] = system: Mycobacterium tuberculosis; assay: Antimycobacterial activity against multidrug-resistant Mycobacterium tuberculosis TN2557
[13] = system: Mycobacterium tuberculosis; assay: Antimycobacterial activity against multidrug-resistant Mycobacterium tuberculosis TN565

Row | SMILES | MIC [1] [µg/mL] | MIC [2] [µg/mL] | MIC [3] [µg/mL] | MIC [4] [µg/mL] | MIC [5] [µg/mL] | MIC [6] [µg/mL] | MIC [7] [µg/mL] | MIC [8] [µg/mL] | MIC [9] [µg/mL] | MIC [10] [µg/mL] | MIC [11] [µg/mL] | MIC [12] [µg/mL] | MIC [13] [µg/mL]
1 | NNC(=O)c1ccncc1 [ISONIAZID] | 0.03 (≈ 0.219 µM) | 0.03 (≈ 0.219 µM) |  |  |  |  |  |  |  |  |  |  | 
2 | O=[N+]([O-])c1cn2c(n1)OC[C@@H](OCc1ccc(OC(F)(F)F)cc1)C2 [PRETOMANID] | 0.015 (≈ 0.0418 µM) | 0.03 (≈ 0.0835 µM) | 0.06 (≈ 0.167 µM) | 0.25 (≈ 0.696 µM) | 0.06 (≈ 0.167 µM) | 0.06 (≈ 0.167 µM) | 0.03 (≈ 0.0835 µM) | 0.25 (≈ 0.696 µM) | 0.03 (≈ 0.0835 µM) | 0.06 (≈ 0.167 µM) | 0.03 (≈ 0.0835 µM) | 0.13 (≈ 0.362 µM) | 0.06 (≈ 0.167 µM)
